Data on 7 compounds can be found in patent EP0266828B1, “Control of biofouling with certain alkylthioalkylamines” (THE DOW CHEMICAL COMPANY, priority 1986, dated 1988).

In brackets after ≈: the same amount, converted by molar mass. Where two headings read alike, the source gives them in different places. Some results are limits rather than exact numbers.

One assay deals with Aspergillus niger. Briefly: Kill time procedure against fungus, malt yeast agar. It is filed as cell-based. The settings on record: pH of 8.2 to 8.3, read-out: Ppm of Compound that Resulted in Kill of All Cells at Various Times. As to the method: (§1) Nutrient broth containing 300 ppm total organic carbon (TOC) and 800 ppm total dissolved solids (TDS), was adjusted to pH 8.5 with NaOH and dispensed in 10 ml aliquots into 18 x 150 mm test tubes. These tubes were capped and autoclaved for 15 minutes at 121°C. Immediately before use, 50 microliters (µl) of a heat sterilized solution of 31.74 g/l MgCl₂ and 73.99 g/l CaCl₂ was added to tubes designated to contain 500 ppm hardness. The tubes with and without added hardness were readjusted to pH 8.5 by addition of appropriate amounts of a filter sterilized solution of 16.8 g/l NaHCO. One hundred and eighty and 125 µl of the NaHCO solution were added, respectively, to tubes with and without added hardness to achieve a pH of 8.5.
(§2) Unless otherwise indicated, Enterobacter aerogenes, ATCC #13048, was used as the test organism. Three 0.1 ml aliquots of a 24 hour nutrient broth culture were pipetted onto three nutrient agar plates and spread uniformly with a Petri dish spreader. After 24 hours' growth, the cells were scraped and washed off the agar surface with sterile glass rods (hockey sticks) and sterile saline solution. After vigorous mixing (vortexing) to break up clumps, the cell suspension was filtered through a sterile filter (Whatman #4) to remove residual clumps. […] Solutions with this optical density, when diluted 1:100, contained approximately 10¹⁰ CFU/ml when plated on standard nutrient agar. The exact number of organisms was determined by making serial dilutions of the cell suspension and plating them on nutrient agar plates. Each of the serial dilution tubes was also streaked on a nutrient agar plate. These streaks of known concentrations of organisms were then used as controls to determine the number of organisms in the test samples.
(§3) Just prior to the addition of the test compounds, 0.1 ml of the cell suspension containing approximately 10¹⁰ cells/ml was added to the prepared broth tubes. Solutions of 0.1 percent weight/weight (w/w) of experimental compound were prepared immediately before use. Appropriate amounts of these solutions were added to achieve final concentrations of 100, 50, 25, 10, 5 ppm of active ingredient in broth tubes both with and/or without hardness. The tubes were then incubated at 30°C. After three and/or 24 hours, dilutions of the broth tubes were made by addition of 0.1 ml of the broth into 9.9 ml of 0.85 percent saline containing 100 ppm NaHSO₃. From the saline tube the samples were streaked with cotton swabs onto nutrient agar plates which also contained 100 ppm NaHSO₃.
(§4) The plates were incubated for 24 hours and then read. The number of organisms present in the broth tubes was determined by comparing these plates to the control plates of the serial dilution tubes.
The kill time procedure substantially as described in Example 2 was performed using Aspergillus niger at a pH of 8.2 to 8.3. Malt yeast agar was used instead of nutrient agar and the incubation times were extended to accommodate the slower growing fungi cells.

Assay [1] deals with Enterobacter aerogenes, ATCC #13048. Briefly: Kill time evaluation (concentration that kills all cells). It is filed as cell-based. The following applies: Klebsiella aerogenes, ATCC13048. As to the method: Hard water was prepared by sterilizing deionized water and adjusted to 500 ppm hardness and 100 ppm alkalinity by addition of 16.7 ml of sterile CaCl₂·2H₂O (36.8 g/l), 16.7 ml of sterile MgSO₄·7H₂O (12 g/l), and 5 ml of sterile NaHCO₃ (16.8 g/l) to 1 liter of water. The pH was adjusted by addition of diluted NaOH or acetic acid.
as §1, §2, §3, §4
Dilute (1/10) nutrient broth was prepared according to standard methods known in the art and then adjusted to a variety of pH's by the addition of NaOH and HCl. The Kill Time Procedure substantially similar to that described in Example 2 was performed. High water hardness was not evaluated in this study.
The Kill Time Evaluation substantially similar to that described in Example 2 was performed.

In another assay the test system is Enterobacter aerogenes. The assay can be described thus: Minimum inhibitory concentration (MIC) procedure in agar at alkaline pH. The settings on record: Klebsiella aerogenes; pH 8.2; 48 hours at 30°C; no high water hardness; unit ppm only from method. It is filed as cell-based. As to the method:
The agar (nutrient agar) was dispensed in 30 ml aliquots into 25 x 200 millimeter (mm) test tubes, capped and autoclaved for 15 minutes at 115°C. The test tubes containing the agar were cooled in a water bath until the temperature of the agar was 48°C and then an appropriate amount of the one percent solution of the test compound was added (except in the controls where no test compound was added) to the respective test tubes so that final concentrations of 500, 250, 100, 50, 25, 10, 5, 2.5, 1.0 and 0 parts per million (ppm) of the test compound in the agar were obtained. The afar solutions were each mixed and poured into individual petri plates so that each petri plate contained agar having a known concentration of test compound dispersed therein. After drying for 24 hours, the petri plates were inoculated with bacteria. The inoculation with bacteria was accomplished using the following procedure. Twenty-four hour cultures of the bacteria were prepared by incubating the bacteria in tubes containing nutrient broth for 24 hours at 30°C in a shaker. Dilutions of the 24 hour culture were made so that a suspension was made, containing about 10⁸ colony forming units (CFU) per ml of suspension of bacteria. Aliquots of 0.3 ml of the above suspension were used to fill individual wells of a Steer's Replicator. The Steer's Replicator was then used to inoculate the petri plates. The petri plates were incubated at 30°C for 48 hours and then read to determine if the test compound which was incorporated into the agar prevented growth of the respective bacteria. The minimum inhibitory concentration (MIC) for each bacteria was defined as the lowest concentration of the test compound which prevented growth of that bacteria. The MIC procedure substantially as described in Example 1 was performed. High water hardness was not evaluated in this study.

The subject of the next assay is algae. The assay can be described thus: Cooling tower trial versus duplicate tower without biocide. The settings on record: 15 ppm added twice a week to recirculating water; pH of 8.5; hardness of 900 ppm; two week period. The text has this: In comparison, the tower without any added biocide became heavily fouled with algae in the same two week period of time.
Where [2] appears, read: 3 hr, pH 8.5, hardness 500 ppm CaCo3, read-out: Ppm of the Compound that Kill all Cells.
Where [3] appears, read: 24 hr, pH 8.5, hardness 500 ppm CaCo3, read-out: Ppm of the Compound that Kill all Cells.

For `CCCCCCCCSCCN` [n-octylthioethylamine], the MFC with Aspergillus niger (pH 8.2, 3 hr.) is 50 µg/mL (≈ 264 µM); in the assay with Aspergillus niger (pH 8.2, 6 hr.), 25 µg/mL (≈ 132 µM); in the assay on Aspergillus niger (pH 8.2, 24 hr.), 10 µg/mL (≈ 52.8 µM). The MBC amounted to 150 µg/mL (≈ 792 µM) in assay [1] (setting [2]) and 75 µg/mL (≈ 396 µM) in assay [1] (setting [3]). Besides, the MIC (in general, the lowest concentration found to suppress growth) in the assay on Enterobacter aerogenes was 25 µg/mL (≈ 132 µM).

In the assay with Enterobacter aerogenes, `CCCCCCCCCSCCN` [n-nonylthioethylamine] showed an MIC of 25 µg/mL (≈ 123 µM).

Regarding `CCCCCCSCCN` [n-hexylthioethylamine], the MBC stood at 500 µg/mL (≈ 3100 µM) in assay [1] (setting [2]) and 250 µg/mL (≈ 1550 µM) in assay [1] (setting [3]). Further, the MIC against Enterobacter aerogenes was 250 to 500 µg/mL (≈ 1550 to 3100 µM).

For `CCCCCCCCCCSCCN` [n-decylthioethylamine], the MFC in the assay on Aspergillus niger (pH 8.2, 3 hr.) is 3.5 µg/mL (≈ 16.1 µM); in the assay on Aspergillus niger (pH 8.2, 6 hr.) it was 0.5 to 3.5 µg/mL (≈ 2.3 to 16.1 µM); with Aspergillus niger (pH 8.2, 24 hr.) it was 0.1 µg/mL (≈ 0.46 µM). Also, the “growth of algae in the treated tower or basin” value in the assay on algae was “prevent the growth of any algae”. For the same compound, the MBC worked out at 20 µg/mL (≈ 92 µM) in assay [1] (setting [2]); 40 µg/mL (≈ 184 µM) in assay [1] (setting [3]); 50 µg/mL (≈ 230 µM) in assay [1] (pH 5, 3 hours, dilute (1/10) nutrient broth, no high water hardness, read-out: Concentration (ppm) of DTEA That Kills all Cells in 3 Hours); 50 µg/mL (≈ 230 µM) in assay [1] (pH 6, 3 hours, dilute (1/10) nutrient broth, no high water hardness, read-out: Concentration (ppm) of DTEA That Kills all Cells in 3 Hours); 20 µg/mL (≈ 92 µM) in assay [1] (pH 7, 3 hours, dilute (1/10) nutrient broth, no high water hardness, read-out: Concentration (ppm) of DTEA That Kills all Cells in 3 Hours); 10 µg/mL (≈ 46 µM) in assay [1] (pH 8, 3 hours, dilute (1/10) nutrient broth, no high water hardness, read-out: Concentration (ppm) of DTEA That Kills all Cells in 3 Hours). The MBC in assay [1] (pH 9, 3 hours, dilute (1/10) nutrient broth, no high water hardness, read-out: Concentration (ppm) of DTEA That Kills all Cells in 3 Hours) is 5 µg/mL (≈ 23 µM); in assay [1] (pH 10, 3 hours, dilute (1/10) nutrient broth, no high water hardness, read-out: Concentration (ppm) of DTEA That Kills all Cells in 3 Hours), no more than 5 µg/mL; in assay [1] (pH 11, 3 hours, dilute (1/10) nutrient broth, no high water hardness, read-out: Concentration (ppm) of DTEA That Kills all Cells in 3 Hours), no more than 5 µg/mL; in assay [1] (pH 12, 3 hours, dilute (1/10) nutrient broth, no high water hardness, read-out: Concentration (ppm) of DTEA That Kills all Cells in 3 Hours) it was no more than 5 µg/mL. Besides, the MIC with Enterobacter aerogenes is 10 to 25 µg/mL (≈ 46 to 115 µM).

`CCCCCCCCCCCSCCN` [n-undecylthioethylamine] showed an MIC with Enterobacter aerogenes of 50 µg/mL (≈ 216 µM).

For `CCCCCCCCCCCCCCSCCN` [n-tetradecylthioethylamine], the MBC in assay [1] (setting [2]) and in assay [1] (setting [3]) was greater than 500 µg/mL throughout. The same compound registered a minimum inhibitory concentration (MIC) against Enterobacter aerogenes greater than 500 µg/mL.

Turning to `CCCCCCCCCCCCSCCN` [n-dodecylthioethylamine], the MBC in assay [1] (setting [2]) was 50 µg/mL (≈ 204 µM); in assay [1] (setting [3]) it was 150 µg/mL (≈ 611 µM). In addition, the MIC against Enterobacter aerogenes lay within 50 to 100 µg/mL (≈ 204 to 407 µM).
